Assay results taken from US8772319B2 (priority 2004, dated 2014).
“And” between values parts separate entries of the source, which are not always exact repeats. Equal entries are not always repeated. Where two headings read alike, the source gives them in different places.

Experiments:
[1] = molecular target: T1, human dopamine transporter (hDAT) (Homo sapiens, UniProt Q01959); assay: biochemical; assay type: binding
[2] = molecular target: T2, human serotonin transporter (hSERT) (Homo sapiens, UniProt P31645); assay: biochemical; settings: Table 5, read-out: SERT binding affinity Ki
[3] = molecular target: T3, human norepinephrine transporter (hNET) (Homo sapiens, UniProt P23975); assay: biochemical; settings: Table 5; [125I]RTI-55; oxalate salts; read-out: NET binding affinity Ki
[4] = molecular target: T1, human dopamine transporter (hDAT); assay: cell-based; settings: for IC50: Reuptake Inhibition [3H]DA IC50, Table 6; for Discrimination Ratios (DR) [3H]DA reuptake/DAT binding: Table 6
[5] = molecular target: T2, human serotonin transporter (hSERT); assay: cell-based; settings: Reuptake Inhibition [3H]5-HT IC50, Table 6
[6] = molecular target: T3, human norepinephrine transporter (hNET); assay: cell-based; settings: Table 6; read-out: Reuptake Inhibition [3H]NE IC50
[7] = molecular target: T4, D1 receptor (Homo sapiens, UniProt P21728); assay: D1 receptor binding, LHD1 cells, [3H]SCH 23,390
T4 construct: expressed in transfected cells; host or cells: LHD1 cells

[8] = molecular target: T5, D2 receptor (Homo sapiens, UniProt P14416); assay: D2 receptor binding, CHOp- cells, [3H]YM-09151-2
T5 construct: expressed in transfected cells; host or cells: CHOp- cells (CHOp-D2)

[9] = molecular target: T6, D3 receptor (Homo sapiens, UniProt P35462); assay: D3 receptor binding, CHOp- cells, [3H]YM-09151-2
T6 construct: expressed in transfected cells; host or cells: CHOp- cells (CHOp-D3)

[10] = molecular target: T7, 5-HT1A receptor (Homo sapiens, UniProt P08908); assay: 5-HT1A receptor binding, HA7 cells, [3H]8-OH-DPAT
T7 construct: expressed in transfected cells; host or cells: HA7 cells
T7 sequence (P08908 1-422): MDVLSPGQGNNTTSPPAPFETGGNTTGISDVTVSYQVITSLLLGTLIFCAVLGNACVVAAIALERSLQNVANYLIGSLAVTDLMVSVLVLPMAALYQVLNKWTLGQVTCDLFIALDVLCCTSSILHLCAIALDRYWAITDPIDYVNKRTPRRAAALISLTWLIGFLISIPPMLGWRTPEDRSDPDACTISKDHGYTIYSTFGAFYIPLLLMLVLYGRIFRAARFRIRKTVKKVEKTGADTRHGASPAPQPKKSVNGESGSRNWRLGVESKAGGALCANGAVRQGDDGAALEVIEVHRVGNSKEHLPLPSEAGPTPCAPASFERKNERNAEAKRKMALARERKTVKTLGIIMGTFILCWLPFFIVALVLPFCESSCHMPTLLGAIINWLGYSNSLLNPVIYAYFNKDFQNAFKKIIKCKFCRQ

[11] = molecular target: T8, 5-HT2A receptor (Rattus norvegicus, UniProt P14842); assay: 5-HT2A receptor binding, NIH-3T3-GF6 cells, [3H]ketanserin
T8 construct: expressed in transfected cells; host or cells: NIH-3T3-GF6 cells

[12] = molecular target: T9, 5-HT2C receptor (Rattus norvegicus, UniProt P08909); assay: 5-HT2C receptor binding, NIH-3T3-P cells, [3H]mesulergine
T9 construct: expressed in transfected cells; host or cells: NIH-3T3-P cells
T9 sequence (P08909 33-460): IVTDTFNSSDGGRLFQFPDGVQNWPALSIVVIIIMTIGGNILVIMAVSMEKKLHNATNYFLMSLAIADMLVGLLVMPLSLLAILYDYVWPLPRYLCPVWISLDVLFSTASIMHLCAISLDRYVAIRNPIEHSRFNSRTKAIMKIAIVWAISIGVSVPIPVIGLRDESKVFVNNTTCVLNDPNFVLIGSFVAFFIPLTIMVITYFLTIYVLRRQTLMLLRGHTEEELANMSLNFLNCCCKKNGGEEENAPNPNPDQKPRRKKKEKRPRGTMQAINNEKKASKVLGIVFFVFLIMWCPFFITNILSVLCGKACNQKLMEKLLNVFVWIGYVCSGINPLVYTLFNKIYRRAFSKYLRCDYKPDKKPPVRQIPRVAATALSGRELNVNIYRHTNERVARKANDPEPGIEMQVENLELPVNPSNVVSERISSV

[13] = molecular target: T5, D2 receptor; assay: cell-based
[14] = molecular target: T6, D3 receptor; assay: Inhibition of quinpirole-stimulated mitogenesis ([3H]thymidine incorporation), CHOp-D3 cells; assay type: cell-based
[15] = test system: male Swiss-Webster mice; assay: Locomotor activity, compound alone, 1-h session; assay type: in vivo, mouse
Description: (§1) 3. Locomotor Activity. […] Panels of infrared beams (16 beams) and corresponding photodetectors were located in the horizontal direction along the sides of each activity chamber. […] Just prior to placement in the apparatus, all mice received a saline injection IP. In all studies, horizontal activity (interruption of 1 photocell beam) was measured for 1-h within 10-min periods. Testing was conducted with one mouse per activity chamber. […] Plot the mean (±SEM) maximal stimulant activity (total counts in the 30 min period divided by 3) vs dose. Perform a log10 transformation of the 30 min period average counts for individual subjects to homogenize variances for subsequent analyses. […] Fit the 30 min period average counts across subjects to a function of log10 dose using least-squares curve-fitting analyses (i.e. TableCurve software from Jandel). Estimate the maximum effect from the resultant dose-response curve. […] Determine the ED50 (dose that produces ½ maximal stimulant activity) from a linear regression analysis of the ascending portion (up to the dose that produces a maximal effect) of the curve. […] Plot the mean (±SEM) activity (total counts in the 30 min period divided by 3) vs dose. Perform a log10 transformation of the 30 min period average counts for individual subjects to homogenize variances for subsequent analyses. Conduct an ANOVA and contrast (specified a priori) each dose of the test compound to the vehicle to determine significant (p<0.05) dose effects. Conduct a linear least-squares regression analysis; regress the min period average counts across subjects over the descending portion of the curve against the log10 dose of the test compound. […] Perform a log10 transformation of the 30 min period average counts for individual subjects to homogenize variances for subsequent analyses. […] Conduct a linear least-squares regression analysis; regress the 30 min period average counts across subjects over the descending portion of the curve against the log10 dose of the test compound. […] Locomotor Activity 8-hour time course/dose response study. […] A panel of infrared beams (16 beams) and corresponding photodetectors were located in the horizontal direction along the sides of each activity chamber. A 7.5-W incandescent light above each chamber provided dim illumination. Fans provided an 80-dB ambient noise level within the chamber. […] In all studies, horizontal activity (interruption of photocell beams) was measured for 8-h within 10-min periods, beginning at 0800 hrs (2 hours after lights on). Testing was conducted with one mouse per activity chamber. Compound alone study.

[16] = test system: male Swiss-Webster mice; assay: Cocaine/compound interaction study on locomotor activity; assay type: in vivo, mouse; settings: for Attenuation of cocaine-induced LMA: 20 mg/kg of cocaine; for AD50, dose attenuating cocaine-induced stimulation by 50%: Table 8, ligand-cocaine interaction study, 20 mg/kg cocaine IP
[17] = test system: male Swiss-Webster mice; assay: Locomotor activity 8-hour time course/dose response study; settings: for ED50: Mus musculus, ip, 8 h, read-out: ED50, dose producing 1/2 maximal stimulant activity (S, stimulation); for ME/CME, Maximal Effect/Cocaine Maximal Effect / mode of action / ID50, dose producing 1/2 maximal depressant activity (I, inhibition): Table 9, 8 hours; for mode of action: ligand alone study; for ID50, dose producing 1/2 maximal depressant activity (I, inhibition): mouse, IP
Description: as §1

T3 sequence (P23975 whole entry): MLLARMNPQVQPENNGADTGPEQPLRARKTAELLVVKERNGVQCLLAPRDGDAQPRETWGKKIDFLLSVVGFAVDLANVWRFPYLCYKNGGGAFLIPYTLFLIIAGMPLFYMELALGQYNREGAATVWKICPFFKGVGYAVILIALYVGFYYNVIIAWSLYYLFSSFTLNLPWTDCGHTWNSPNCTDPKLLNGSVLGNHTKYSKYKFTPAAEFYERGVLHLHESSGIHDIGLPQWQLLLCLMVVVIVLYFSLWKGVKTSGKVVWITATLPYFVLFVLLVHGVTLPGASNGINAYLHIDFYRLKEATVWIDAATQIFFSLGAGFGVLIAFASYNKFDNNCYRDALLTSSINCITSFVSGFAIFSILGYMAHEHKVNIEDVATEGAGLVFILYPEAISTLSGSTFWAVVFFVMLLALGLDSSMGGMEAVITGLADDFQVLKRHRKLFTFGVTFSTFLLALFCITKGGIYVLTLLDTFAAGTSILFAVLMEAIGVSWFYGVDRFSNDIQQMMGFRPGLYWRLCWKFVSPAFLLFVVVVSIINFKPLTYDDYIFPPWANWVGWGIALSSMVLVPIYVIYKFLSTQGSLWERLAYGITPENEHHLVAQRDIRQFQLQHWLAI
T1 sequence (Q01959 whole entry): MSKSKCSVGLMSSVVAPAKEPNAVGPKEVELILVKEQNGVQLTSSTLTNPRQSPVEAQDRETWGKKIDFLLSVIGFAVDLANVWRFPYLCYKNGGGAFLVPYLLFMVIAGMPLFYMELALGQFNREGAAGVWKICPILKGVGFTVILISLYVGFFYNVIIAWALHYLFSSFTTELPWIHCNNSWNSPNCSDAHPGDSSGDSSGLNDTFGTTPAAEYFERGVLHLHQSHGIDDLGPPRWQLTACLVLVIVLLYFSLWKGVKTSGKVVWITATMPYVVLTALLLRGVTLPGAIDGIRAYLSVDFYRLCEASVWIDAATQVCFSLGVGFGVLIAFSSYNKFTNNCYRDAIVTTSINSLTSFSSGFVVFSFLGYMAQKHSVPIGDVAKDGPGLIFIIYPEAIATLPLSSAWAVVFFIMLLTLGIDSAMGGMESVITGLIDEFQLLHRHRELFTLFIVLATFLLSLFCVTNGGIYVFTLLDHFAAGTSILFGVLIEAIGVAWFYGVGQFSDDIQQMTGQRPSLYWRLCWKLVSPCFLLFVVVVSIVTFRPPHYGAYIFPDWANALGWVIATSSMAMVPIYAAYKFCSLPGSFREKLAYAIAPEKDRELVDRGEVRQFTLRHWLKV
T6 sequence (P35462 whole entry): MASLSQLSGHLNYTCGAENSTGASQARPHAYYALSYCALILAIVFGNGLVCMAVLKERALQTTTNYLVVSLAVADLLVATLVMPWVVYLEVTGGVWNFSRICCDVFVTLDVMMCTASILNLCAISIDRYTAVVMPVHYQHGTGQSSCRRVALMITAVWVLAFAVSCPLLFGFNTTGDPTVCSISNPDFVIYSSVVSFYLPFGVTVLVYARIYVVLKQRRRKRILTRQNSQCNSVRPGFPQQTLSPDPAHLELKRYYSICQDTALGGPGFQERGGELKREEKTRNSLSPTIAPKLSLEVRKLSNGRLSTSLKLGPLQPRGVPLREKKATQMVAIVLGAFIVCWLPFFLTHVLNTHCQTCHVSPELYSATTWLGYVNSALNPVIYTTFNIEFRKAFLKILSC
T5 sequence (P14416 whole entry): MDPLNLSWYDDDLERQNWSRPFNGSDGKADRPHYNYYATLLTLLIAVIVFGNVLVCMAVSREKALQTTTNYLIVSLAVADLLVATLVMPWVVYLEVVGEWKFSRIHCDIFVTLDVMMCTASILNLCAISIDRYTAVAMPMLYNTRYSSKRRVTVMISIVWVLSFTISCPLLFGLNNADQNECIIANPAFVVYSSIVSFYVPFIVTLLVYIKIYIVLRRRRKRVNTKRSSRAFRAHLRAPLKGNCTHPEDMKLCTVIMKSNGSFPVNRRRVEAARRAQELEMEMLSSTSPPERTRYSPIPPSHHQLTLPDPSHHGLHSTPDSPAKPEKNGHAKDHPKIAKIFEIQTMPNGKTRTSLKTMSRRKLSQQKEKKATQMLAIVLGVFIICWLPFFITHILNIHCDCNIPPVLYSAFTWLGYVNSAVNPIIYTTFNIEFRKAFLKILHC
T2 sequence (P31645 whole entry): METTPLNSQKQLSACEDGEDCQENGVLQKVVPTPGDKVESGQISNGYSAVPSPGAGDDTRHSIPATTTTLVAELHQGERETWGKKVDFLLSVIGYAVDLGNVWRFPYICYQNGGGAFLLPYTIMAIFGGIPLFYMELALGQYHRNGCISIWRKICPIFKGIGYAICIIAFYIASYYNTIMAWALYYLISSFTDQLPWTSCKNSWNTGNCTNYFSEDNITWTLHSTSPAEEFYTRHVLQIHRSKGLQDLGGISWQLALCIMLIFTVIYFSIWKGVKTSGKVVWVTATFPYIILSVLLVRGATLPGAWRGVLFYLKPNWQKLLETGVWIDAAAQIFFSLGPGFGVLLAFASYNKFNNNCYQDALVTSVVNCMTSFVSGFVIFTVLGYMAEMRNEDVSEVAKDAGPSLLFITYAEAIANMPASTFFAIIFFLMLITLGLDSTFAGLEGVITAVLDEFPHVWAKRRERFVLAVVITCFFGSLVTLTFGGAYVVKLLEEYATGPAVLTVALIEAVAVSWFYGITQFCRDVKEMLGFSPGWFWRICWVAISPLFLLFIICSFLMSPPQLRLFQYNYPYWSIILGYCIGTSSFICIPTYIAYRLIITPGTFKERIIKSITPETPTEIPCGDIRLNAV
T4 sequence (P21728 whole entry): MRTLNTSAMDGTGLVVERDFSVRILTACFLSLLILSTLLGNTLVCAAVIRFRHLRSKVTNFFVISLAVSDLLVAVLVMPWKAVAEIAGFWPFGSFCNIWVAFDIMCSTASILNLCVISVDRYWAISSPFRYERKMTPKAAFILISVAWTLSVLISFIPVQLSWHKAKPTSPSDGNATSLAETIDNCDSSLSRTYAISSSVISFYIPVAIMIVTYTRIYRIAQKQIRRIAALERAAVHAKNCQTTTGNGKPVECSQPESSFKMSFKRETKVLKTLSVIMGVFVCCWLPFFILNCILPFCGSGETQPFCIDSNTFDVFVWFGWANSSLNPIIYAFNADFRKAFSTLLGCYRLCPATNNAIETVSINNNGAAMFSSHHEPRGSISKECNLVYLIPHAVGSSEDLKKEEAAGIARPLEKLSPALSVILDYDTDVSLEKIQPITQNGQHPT
T8 sequence (P14842 whole entry): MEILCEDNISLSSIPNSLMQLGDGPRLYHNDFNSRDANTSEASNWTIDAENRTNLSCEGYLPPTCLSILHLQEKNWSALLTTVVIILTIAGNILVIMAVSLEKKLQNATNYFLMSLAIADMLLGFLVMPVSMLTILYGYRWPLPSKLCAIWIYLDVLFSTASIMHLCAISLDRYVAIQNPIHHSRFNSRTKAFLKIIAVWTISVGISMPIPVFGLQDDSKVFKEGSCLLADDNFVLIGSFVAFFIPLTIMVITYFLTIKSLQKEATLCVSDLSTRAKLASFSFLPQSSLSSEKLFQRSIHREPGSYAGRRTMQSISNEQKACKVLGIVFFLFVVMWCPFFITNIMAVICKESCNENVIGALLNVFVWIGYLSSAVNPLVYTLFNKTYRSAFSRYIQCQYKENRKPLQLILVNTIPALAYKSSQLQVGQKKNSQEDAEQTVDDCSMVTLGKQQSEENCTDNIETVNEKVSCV

| Compound | Binding Ratios NET/DAT ([1]; Table 5) | Binding Ratios SERT/DAT ([1]; Table 5) | IC50 [4] [nM] | Discrimination Ratios (DR) [3H]DA reuptake/DAT binding [4] | IC50 [6] [nM] | Ki [10] [nM] | IC50 [14] [nM] | Attenuation of cocaine-induced LMA [16] | AD50, dose attenuating cocaine-induced stimulation by 50% [16] [mg/kg] | ED50 [17] [mg/kg] | ME/CME, Maximal Effect/Cocaine Maximal Effect [17] | mode of action [17] | ID50, dose producing 1/2 maximal depressant activity (I, inhibition) [17] | also measured |
| --- | --- | --- | --- | --- | --- | --- | --- | --- | --- | --- | --- | --- | --- | --- |
| Fc1ccc(C(OCCCCN2CCN(c3ccccn3)CC2)c2ccc(F)cc2)cc1 [Compound 39, 1-[4-[Bis(4-fluorophenyl)methoxy]butyl]-4-pyridin-2-ylpiperazine] | 12.3 | >1190 | 386 ± 55 | 46 | 2230 ± 710 | 53.5 ± 8.62 | 955 | Attenuation | 62.1 | 38 | >0.35 | biphasic | 60.3/I^e,i mg/kg | Ki [1]: 8.4 ± 4 nM; Ki ([2]; bound given in μM): > 10 µM; Ki [3]: 103 ± 37 nM; IC50 ([5]; bound given in μM): > 10 µM; Ki [7]: 597 ± 19.4 nM; Ki [8]: 282 ± 67.7 nM; Ki [9]: 453 ± 163 nM; binding for 5-HT1A ([10]; Table 7): moderate binding; Ki [11]: 498 ± 47.9 nM; Ki [12]: 3450 ± 1080 nM; D2 functional activity, marked agonist (footnote d) ([13]; Table 7, CHOp-D2 cells, [3H]thymidine incorporation, agonist): 196 ± 62.8^d nM; ED50, dose producing 1/2 maximal stimulant activity (S, stimulation) ([15]; Table 8, mouse, IP, ligand alone, 1-h session): no activity |
| Fc1ccc(C(OCCCCN2CCNC(c3ccccc3)C2)c2ccc(F)cc2)cc1 (stereo not drawn) [Compound 28, 2-Phenyl-4-[4-[bis(4-fluorophenyl)methoxy]butyl]piperazine] | 49.9 | 19.6 | 550 ± 140 | 144 and 144.4 | 290 ± 50 | 2250 ± 359 | 629 | Attenuation | 50.27 | 7.6 | 0.30 | biphasic | 36.4/I^e,f mg/kg | Ki ([1]; Table 5, [125I]RTI-55, oxalate salts, read-out: DAT binding affinity Ki): 3.81 ± 0.84 nM; Ki ([2]; [125I]RTI-55, oxalate salts): 0.0746 ± 0.0058 µM; IC50 [5]: 0.7 ± 0.26 µM; Ki ([7]; Table 7, LHD1 cells, [3H]SCH 23,390, read-out: D1 Affinity Ki): 6150 ± 541 nM; Ki ([8]; Table 7, CHOp- cells, [3H]YM-09151-2, read-out: D2 Affinity Ki): 715 ± 404 nM; Ki ([9]; Table 7, CHOp- cells, [3H]YM-09151-2, read-out: D3 Affinity Ki): 677 ± 262 nM; Ki ([11]; Table 7, rat receptors, NIH-3T3-GF6 cells, [3H]ketanserin, read-out: 5-HT2A Affinity Ki): 1490 ± 352 nM; Ki ([12]; Table 7, rat receptors, [3H]mesulergine, read-out: 5-HT2C Affinity Ki): 6700 ± 437 nM; IC50 ([13]; read-out: D2 Antagonist activity IC50): 164 nM; ED50 ([15]; Mus musculus, ip, 1 h, read-out: ED50, dose producing 1/2 maximal stimulant activity (S, stimulation)): 1.52 mg/kg; mode of action ([15]; Table 8, ligand alone study): monophasic; ME/CME, Maximal Effect/Cocaine Maximal Effect ([15]; Table 8, mouse locomotor activity): 0.30; effect on spontaneous LMA ([15]; mouse, compound alone): significant increase |
